From PubChem BioAssay AID2060490 (Molecular Pharmacology Branch, DTP, NCI, 2025)

Test system: 885512-296-R-J2-PDC complex spheroid viability
Experiment: Anticancer human tumor 885512-296-R-J2-PDC patient-derived breast carcinoma cell line growth inhibition [GQUAD]
Settings: for IC50: curve of first compound; for viability, T/C: stronger effect = lower value; active = viability on the fitted dose curve at most 10% of control; inactive = the rest
How it was run: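 Multi-cell-type spheroids of tumor cells with HUVEC and mesenchymal stem cells, treated with drug combinations. Concentrations descend in half-log steps from near clinical Cmax, or from 10 microM where Cmax is unknown; viability read-out.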

[1] = second compound 0.0316 µM, first compound 0.0316 µM
[2] = second compound 0.0316 µM, first compound 0.316 µM
[3] = second compound 0.1 µM, first compound 0.0316 µM
[4] = second compound 0.1 µM, first compound 0.316 µM
[5] = second compound 0.316 µM, first compound 0.0316 µM
[6] = second compound 0.316 µM, first compound 0.316 µM
[7] = second compound 1 µM, first compound 0.0316 µM
[8] = second compound 1 µM, first compound 0.316 µM
[9] = second compound 3.16 µM, first compound 0.0316 µM
[10] = second compound 3.16 µM, first compound 0.316 µM
[11] = second compound 10 µM, first compound 0.0316 µM
[12] = second compound 10 µM, first compound 0.316 µM
[13] = second compound 0.0316 µM, first compound 0.1 µM
[14] = second compound 0.0316 µM, first compound 1 µM
[15] = second compound 0.0316 µM, first compound 3.16 µM
[16] = second compound 0.0316 µM, first compound 10 µM
[17] = second compound 0.1 µM, first compound 0.1 µM
[18] = second compound 0.1 µM, first compound 1 µM
[19] = second compound 0.1 µM, first compound 3.16 µM
[20] = second compound 0.1 µM, first compound 10 µM
[21] = second compound 0.316 µM, first compound 0.1 µM
[22] = second compound 0.316 µM, first compound 1 µM
[23] = second compound 0.316 µM, first compound 3.16 µM
[24] = second compound 0.316 µM, first compound 10 µM
[25] = second compound 1 µM, first compound 0.1 µM
[26] = second compound 1 µM, first compound 1 µM
[27] = second compound 1 µM, first compound 3.16 µM
[28] = second compound 1 µM, first compound 10 µM
[29] = second compound 3.16 µM, first compound 0.1 µM
[30] = second compound 3.16 µM, first compound 1 µM
[31] = second compound 3.16 µM, first compound 3.16 µM
[32] = second compound 3.16 µM, first compound 10 µM
[33] = second compound 10 µM, first compound 0.1 µM
[34] = second compound 10 µM, first compound 1 µM
[35] = second compound 10 µM, first compound 3.16 µM
[36] = second compound 10 µM, first compound 10 µM
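Also: spheroids exposed to the compounds for one week.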
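For viability, T/C in this document: percent of tumor spheroid viability relative to DMSO vehicle control wells.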

CC[C@@]1(O)C(=O)OCc2c1cc1n(c2=O)Cc2cc3c(CN(C)C)c(O)ccc3nc2-1 + Cc1cnc(CNC(=O)c2c(=O)c3ccc(N4CCCN(C)CC4)nc3n3c2sc2ccccc23)cn1
0.0139 µM: IC50 (second compound 0.0316 µM)
active: viability, T/C [4] 9.1% | viability, T/C [10] 8.5% | viability, T/C (second compound 10 µM, first compound 0.000999 µM) 0.07% | viability, T/C (second compound 10 µM, first compound 0.00316 µM) 0.13% | viability, T/C (second compound 10 µM, first compound 0.00999 µM) 0.24% | viability, T/C [11] 0.16% | viability, T/C (second compound 10 µM, first compound 0.0999 µM) 0.17% | viability, T/C [12] 0.14%
0.00386 µM: IC50 (second compound 0.1 µM)
inactive: viability, T/C (second compound 0.0316 µM, first compound 0.000999 µM) 82.1% | viability, T/C (second compound 0.0316 µM, first compound 0.00316 µM) 77.9% | viability, T/C (second compound 0.0316 µM, first compound 0.00999 µM) 62.1% | viability, T/C [1] 20.5% | viability, T/C (second compound 0.0316 µM, first compound 0.0999 µM) 15.2% | viability, T/C [2] 6.65% | viability, T/C (second compound 0.1 µM, first compound 0.000999 µM) 63.8% | viability, T/C (second compound 0.1 µM, first compound 0.00316 µM) 52.1% | viability, T/C (second compound 0.1 µM, first compound 0.00999 µM) 37.4% | viability, T/C [3] 20.1% | viability, T/C (second compound 0.1 µM, first compound 0.0999 µM) 13.4% | viability, T/C (second compound 0.316 µM, first compound 0.000999 µM) 30% | viability, T/C (second compound 0.316 µM, first compound 0.00316 µM) 19.1% | viability, T/C (second compound 0.316 µM, first compound 0.00999 µM) 21.3% | viability, T/C [5] 16.1% | viability, T/C (second compound 0.316 µM, first compound 0.0999 µM) 16.9% | viability, T/C [6] 12% | viability, T/C (second compound 1 µM, first compound 0.000999 µM) 21.8% | viability, T/C (second compound 1 µM, first compound 0.00316 µM) 22.8% | viability, T/C (second compound 1 µM, first compound 0.00999 µM) 18.4% | viability, T/C [7] 20.1% | viability, T/C (second compound 1 µM, first compound 0.0999 µM) 15.2% | viability, T/C [8] 12% | viability, T/C (second compound 3.16 µM, first compound 0.000999 µM) 29.7% | viability, T/C (second compound 3.16 µM, first compound 0.00316 µM) 24% | viability, T/C (second compound 3.16 µM, first compound 0.00999 µM) 24.8% | viability, T/C [9] 20.2% | viability, T/C (second compound 3.16 µM, first compound 0.0999 µM) 12.8%
< 0.000999 µM: IC50 (second compound 0.316 µM) | IC50 (second compound 1 µM) | IC50 (second compound 3.16 µM) | IC50 (second compound 10 µM)

CC(C)(O)C1CCC(Nc2ccc3ncc(-c4cccc(C(F)(F)F)c4)n3n2)CC1 (stereo unspecified) + Cc1cnc(CNC(=O)c2c(=O)c3ccc(N4CCCN(C)CC4)nc3n3c2sc2ccccc23)cn1
inactive: viability, T/C [1] 91.5% | viability, T/C [13] 70.3% | viability, T/C [2] 85.9% | viability, T/C [14] 69.8% | viability, T/C [15] 25.8% | viability, T/C [16] 25.2% | viability, T/C [3] 63.4% | viability, T/C [17] 55.3% | viability, T/C [4] 52.6% | viability, T/C [18] 57.6% | viability, T/C [19] 29.6% | viability, T/C [20] 24.7% | viability, T/C [5] 24.4% | viability, T/C [21] 23.7% | viability, T/C [6] 25.7% | viability, T/C [22] 27.1% | viability, T/C [23] 28.8% | viability, T/C [24] 20.6% | viability, T/C [7] 22.9% | viability, T/C [25] 23.8% | viability, T/C [8] 29.4% | viability, T/C [26] 29.9% | viability, T/C [27] 25.6% | viability, T/C [28] 11.9% | viability, T/C [9] 27.7% | viability, T/C [29] 28% | viability, T/C [10] 24.5% | viability, T/C [30] 23.1%
1.67 µM: IC50 (second compound 0.0316 µM)
< 0.0316 µM: IC50 (second compound 0.316 µM) | IC50 (second compound 1 µM) | IC50 (second compound 3.16 µM) | IC50 (second compound 10 µM)
1.35 µM: IC50 (second compound 0.1 µM)
active: viability, T/C [31] 0.1% | viability, T/C [32] 0.36% | viability, T/C [11] 0.06% | viability, T/C [33] 0.14% | viability, T/C [12] 0.19% | viability, T/C [34] 0.18% | viability, T/C [35] 0.19% | viability, T/C [36] 0.2%

CC1COCCN1c1cc(C2(S(C)(=N)=O)CC2)nc(-c2ccnc3[nH]ccc23)n1 (stereo unspecified) + Cc1[nH]c2ccc(F)cc2c1-c1nc2c3cccnc3c3ncccc3c2[nH]1
active: viability, T/C [16] 5.02% | viability, T/C [20] 3.91% | viability, T/C [23] 4.02% | viability, T/C [24] 4.62% | viability, T/C [27] 3.67% | viability, T/C [28] 3.74% | viability, T/C [29] 5.19% | viability, T/C [10] 3.19% | viability, T/C [30] 1.97% | viability, T/C [31] 1.51% | viability, T/C [32] 1.38% | viability, T/C [11] 1.16% | viability, T/C [33] 1.65% | viability, T/C [12] 1.5% | viability, T/C [34] 1.57% | viability, T/C [35] 1.94% | viability, T/C [36] 1.43%
0.555 µM: IC50 (second compound 0.316 µM)
0.868 µM: IC50 (second compound 0.1 µM)
0.147 µM: IC50 (second compound 1 µM)
0.838 µM: IC50 (second compound 0.0316 µM)
< 0.0316 µM: IC50 (second compound 3.16 µM) | IC50 (second compound 10 µM)
inactive: viability, T/C [1] 103% | viability, T/C [13] 105% | viability, T/C [2] 85.6% | viability, T/C [14] 44.9% | viability, T/C [15] 7.65% | viability, T/C [3] 125% | viability, T/C [17] 108% | viability, T/C [4] 92.1% | viability, T/C [18] 46.1% | viability, T/C [19] 6.65% | viability, T/C [5] 102% | viability, T/C [21] 94.2% | viability, T/C [6] 72% | viability, T/C [22] 28% | viability, T/C [7] 80.4% | viability, T/C [25] 55.6% | viability, T/C [8] 37% | viability, T/C [26] 5.55% | viability, T/C [9] 10.4%
